From US20050244490A1, “Dosing methods for beta-D-2',3'-dideoxy-2',3'-didehydro-5-fluorocytidine antiviral therapy” (priority 2003, published 2005)
Like-named read-outs stand apart in the source and are kept apart here.

Key:
HIV viral load [1] = conditions: cited from earlier work
HIV viral load [2] = assay: Viral load decline on repeated dosing, β-D-D4FC and competing nucleosides; assay type: in vivo; conditions: 200 to 600 mg QD, duration of dosing 14; not monotherapy, in combination with EFV & D4T
[3] = tested on: acutely HIV-1 infected human PBM cells; assay: Median effect / combination index study with Racivir; assay type: cell-based; conditions: Human immunodeficiency virus 1, PBMC, 120 h; Day 5; assays (1), (2), (3); read-out: EC90
M184V mutant RT = M184V mutant RT (Human immunodeficiency virus type 1 group M subtype B, UniProt P04585, M771V); assay: biochemical; assay type: biochemical, HIV-1; conditions: Km for dC-TP (substrate)
wild type HIV-RT = molecular target: T1, wild type HIV-RT (Human immunodeficiency virus type 1 group M subtype B, UniProt P04585); assay: Ki / Km for wild type HIV-RT; assay type: biochemical, HIV-1; conditions: Km for dC-TP (substrate); read-out: Km WT
T1 construct: The Ki value for β-D-D4FC-TP for wild type HIV-RT

HepG2 cells = assay: Mitochondrial toxicity testing (mitDNA, rRNA, lactic acid); assay type: cell-based; conditions: 14 days; for % Change in Lactic Acid: normalized for cytotoxicity
Method: HepG2 cells were incubated for 14 days with the active agent. and mitDNA and rRNA levels were determined by quantitative real-time PCR. The results are tabulated in […]

clinical = conditions: in vivo
[4] = human, in vivo
[5] = tested on: AZT/3TC-resistant HIV-1 recombinant viruses; assay: microbe, parasite or virus in culture; assay type: cell-based; conditions: Human immunodeficiency virus 1, read-out: Average IC90 for AZT/3TC-R virus
Method: A panel of 22 viruses was constructed in the HXB2 background using the Protease and RT sequences from clinical isolates to determine Virco Profiling against recombinant clinical isolates (see FIGS. 7a and 7b). Viruses contained 2 to 17 mutations in RT frequently associated with nucleoside resistance, including: M184V, M41L, D67N, T215Y. IC50 values were determined using a high through-put reporter virus assay.

DNA Pol γ = molecular target: T2, DNA Pol γ (Homo sapiens, UniProt P54098); assay: Inhibition of pure DNA polymerase γ by nucleoside triphosphates; assay type: biochemical; conditions: tritiated dCTP incorporation
T2 sequence (P54098 1-1239): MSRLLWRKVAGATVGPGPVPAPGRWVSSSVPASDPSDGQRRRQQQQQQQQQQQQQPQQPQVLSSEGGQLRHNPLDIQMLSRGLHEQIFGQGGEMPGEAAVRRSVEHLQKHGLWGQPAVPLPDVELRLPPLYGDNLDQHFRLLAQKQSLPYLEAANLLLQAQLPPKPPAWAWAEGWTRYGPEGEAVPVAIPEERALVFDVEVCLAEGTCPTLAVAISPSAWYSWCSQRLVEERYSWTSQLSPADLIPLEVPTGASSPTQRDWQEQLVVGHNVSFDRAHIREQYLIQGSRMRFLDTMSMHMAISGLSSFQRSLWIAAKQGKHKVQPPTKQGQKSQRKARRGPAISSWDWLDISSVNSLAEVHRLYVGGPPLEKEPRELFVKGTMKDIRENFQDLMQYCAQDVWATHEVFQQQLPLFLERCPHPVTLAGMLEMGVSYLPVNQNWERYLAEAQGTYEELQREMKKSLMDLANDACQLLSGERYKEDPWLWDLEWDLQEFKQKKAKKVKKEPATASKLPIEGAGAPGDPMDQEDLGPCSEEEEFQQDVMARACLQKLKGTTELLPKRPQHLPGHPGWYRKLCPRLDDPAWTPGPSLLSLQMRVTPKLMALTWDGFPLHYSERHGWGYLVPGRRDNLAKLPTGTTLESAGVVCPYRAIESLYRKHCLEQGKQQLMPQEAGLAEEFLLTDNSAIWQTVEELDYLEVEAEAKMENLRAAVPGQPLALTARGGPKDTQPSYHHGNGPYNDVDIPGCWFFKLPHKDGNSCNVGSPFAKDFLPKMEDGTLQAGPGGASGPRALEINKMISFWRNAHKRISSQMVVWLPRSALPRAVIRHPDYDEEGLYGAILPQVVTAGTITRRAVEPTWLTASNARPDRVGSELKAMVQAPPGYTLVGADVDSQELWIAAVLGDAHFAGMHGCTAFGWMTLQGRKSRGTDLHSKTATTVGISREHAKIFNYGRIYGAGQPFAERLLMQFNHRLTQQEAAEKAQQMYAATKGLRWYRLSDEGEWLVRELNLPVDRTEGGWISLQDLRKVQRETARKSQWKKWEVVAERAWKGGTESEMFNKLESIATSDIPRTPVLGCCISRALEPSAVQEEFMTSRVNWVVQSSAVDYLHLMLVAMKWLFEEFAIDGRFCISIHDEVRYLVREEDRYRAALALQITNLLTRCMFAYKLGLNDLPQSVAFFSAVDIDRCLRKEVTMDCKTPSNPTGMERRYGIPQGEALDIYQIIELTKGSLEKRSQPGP
Method: (§1) Triphosphates of nucleosides were tested against pure polymerases using tritiated dCTP incorporation.

DNA Pol β = DNA Pol β (Homo sapiens, UniProt P06746); assay: Inhibition of pure DNA polymerase β by nucleoside triphosphates; assay type: biochemical; conditions: tritiated dCTP incorporation
Method: as §1

Row | SMILES | % Change in mitDNA (HepG2 cells; 1 μM) | % Change in rRNA (HepG2 cells; 1 μM) | % Change in Lactic Acid (HepG2 cells; 1 μM) | % Change in mitDNA (HepG2 cells; 10 μM) | % Change in rRNA (HepG2 cells; 10 μM) | % Change in Lactic Acid (HepG2 cells; 10 μM) | other results
1 | Cc1cn([C@H]2C[C@H](N=[N+]=[N-])[C@@H](CO)O2)c(=O)[nH]c1=O [AZT, 3′-deoxy-3′-azido-thymidine] | – | – | – | – | – | – | Viral Load Decline (log) (HIV viral load [1]; 300 mg BD, duration of dosing 14): −0.6 log
2 | Nc1nc(=O)n(C2CSC(CO)O2)cc1F (stereo not shown) [Racivir, reference compound] | – | – | – | – | – | – | Viral Load Decline (log) (HIV viral load [2]): −2.02 to −2.43 log; EC90 [3]: 170 nM
3 | C[C@H](Cn1cnc2c(N)ncnc21)OCP(=O)(O)O [TFV] | – | – | – | – | – | – | Viral Load Decline (log) (HIV viral load [1]; 300 mg QD, duration of dosing 28): −1.57 log
4 | Nc1ccn([C@H]2C[C@H](O)[C@@H](COP(=O)(O)OP(=O)(O)OP(=O)(O)O)O2)c(=O)n1 [dC-TP] | – | – | – | – | – | – | Km (M184V mutant RT): 9 µM; Km (wild type HIV-RT): 7 µM
5 | Nc1ccn([C@H]2CC[C@@H](CO)O2)c(=O)n1 [ddC, 2′,3′-dideoxycytidine] | −99.7% | −65.4% | +390% | −99.7% | −73.6% | +492% | –
6 | Nc1nc(=O)n([C@H]2C=C[C@@H](CO)O2)cc1F [L-D4FC] | −15% | 0% | +25% | −74.2% | −75.5% | +147% | Viral Load Decline (log) (HIV viral load [1]; 50 mg QD, duration of dosing 21, add-on study in experienced patients, mean of 7 of 18 patients): −1.69 log
7 | Nc1ccn([C@@H]2CS[C@H](CO)O2)c(=O)n1 [3TC, β-L-2′,3′-dideoxy-3′-thiacytidine] | 0% | −0.3% | +23% | −9% | −0% | +5% | Cmax (clinical): 6.6 µM; Intracellular [Nuc-PPP] in patients [4]: 6 to 10 µM; IC90 [5]: > 93000 nM
8 | Nc1nc(NC2CC2)c2ncn([C@H]3C=C[C@@H](CO)C3)c2n1 [ABC, (1S,4R)-4-[2-amino-6-cyclopropyl-amino)-9H-purin-9-yl]-2-cyclopentene-1-methanol succinate] | – | – | – | – | – | – | Viral Load Decline (log) (HIV viral load [1]; 600 mg BD, duration of dosing 7): −1.00 log
9 | Nc1ccn([C@H]2CC[C@@H](COP(=O)(O)OP(=O)(O)OP(=O)(O)O)O2)c(=O)n1 [ddC-TP] | – | – | – | – | – | – | IC50 (DNA Pol γ): 70 nM; IC50 (DNA Pol β): 250 nM
